Results from patent US12502440B2, “Cross-linking compounds and methods of use thereof” (North Carolina State University, priority 2019, dated 2025).
Several values for one entry are separate records, joined by “and”; a condition that tells them apart may be missing. Equal entries are not always repeated.

Columns and labels:
Type in all cases: biochemical
rat liver homogenate = assay: Indigoid-dye formation in rat liver homogenate; details: indoxyl 1 mM in rat liver homogenate, 5% DMF, 37° C., 24 h; ε = 1.27 × 10^4 M^−1 cm^−1 measured for 4
Method: Finally, indigoid-dye formation was carried out in rat liver homogenate (Table 1, rightmost column).
Reactions in rat liver homogenate. An indoxyl compound in DMF (5 μL, 20 mM) was mixed with rat liver homogenate (95 μL). The reaction mixture was incubated at 37° C. for 24 h. After allowing to cool to room temperature, the reaction mixture was diluted with DMF (900 μL). The mixture was heated at 70° C. for 2 min and then centrifuged for 2 min. The supernatant was separated from any precipitate. This extraction procedure was repeated two or three times with DMF (100-500 μL). The combined supernatant (1500-1800 μL) was analyzed by absorption spectroscopy.

[1] = biological target: T1, β-glucosidase from Agrobacterium (Agrobacterium sp., UniProt P12614); assay: Indigogenic reaction with β-glucosidase from Agrobacterium
T1 construct: purchased Megazyme
T1 sequence (P12614 1-459): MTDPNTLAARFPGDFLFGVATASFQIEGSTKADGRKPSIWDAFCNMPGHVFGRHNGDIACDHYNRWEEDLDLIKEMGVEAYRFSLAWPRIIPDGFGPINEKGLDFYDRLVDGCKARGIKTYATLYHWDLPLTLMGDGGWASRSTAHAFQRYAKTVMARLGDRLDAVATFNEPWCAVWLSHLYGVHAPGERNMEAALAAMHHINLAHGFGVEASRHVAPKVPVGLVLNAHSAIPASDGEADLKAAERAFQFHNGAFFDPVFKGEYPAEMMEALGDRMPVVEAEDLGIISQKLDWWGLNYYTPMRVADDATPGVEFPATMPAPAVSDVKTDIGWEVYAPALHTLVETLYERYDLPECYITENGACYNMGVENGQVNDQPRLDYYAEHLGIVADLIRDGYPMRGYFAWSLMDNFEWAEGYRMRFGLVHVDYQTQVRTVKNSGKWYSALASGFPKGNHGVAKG
Method: Next, the β-glucosidase from Agrobacterium sp. was investigated as the trigger enzyme for indigoid dye formation. […] The reaction was carried out using the enzyme (200 nM) and indoxyl-glucoside 33 (100 μM) in phosphate buffer (pH 4-9, containing 2% DMF) at 37° C. […] Note that with 200 nM enzyme and 100 μM substrate, complete reaction requires 500 turnovers of each enzyme.
Reactions with β-glucosidase from Agrobacterium. An indoxyl compound in DMF (2 μL, 5 mM) and β-glucosidase from Agrobacterium in 10 mM phosphate buffer [2 μL, 10 μM, pH 7.0, containing 50 mM NaCl and 0.6 M (NH4)2SO4] were mixed with 50 mM phosphate buffer (96 μL, pH 7.0). The reaction mixture was incubated at 37° C. for 2 h and then centrifuged for 3 min. Any precipitate was separated from the supernatant and dissolved in DMF (200 μL). The resulting solution was analyzed by absorption spectroscopy. The experiment was repeated three times.

[2] = tested on: β-glucosidase from almonds; assay: Indigogenic reaction with β-glucosidase from almonds
[3] = indoxyl 1 mM, enzyme 1 unit/mL, 0.01M acetate buffer pH 5, 5% DMF, 37° C., 16-19 h, ε = 1.27 × 10^4 M^−1 cm^−1 measured for 4
[4] = as E4 but ε measured for 43 (footnote g)
[5] = indoxyl 100 μM, enzyme 200 nM, 0.05M phosphate buffer pH 7.0, 2% DMF, 37° C., 2 h, three repeats, ε = 1.27 × 10^4 M^−1 cm^−1 measured for 4
[6] = as E1 but ε measured for 43 (footnote g)

Compound: 5-bromo-4-chloroindoxyl β-glucoside [compound 42, reference compound]
- Yield (%) of indigoid dye, rat liver homogenate (rat liver homogenate): 65%
- Yield (%) of indigoid dye, β-glucosidase from Agrobacterium ([1]; as E4 but ε = 2.00 × 10^4 M^−1 cm^−1 reported for 5,5′-dibromo-4,4′-dichloroindigo (footnote e)): 116% and 116 ± 8^e %
- Yield (%) of indigoid dye, β-glucosidase from almonds ([2]; as E1 but ε = 2.00 × 10^4 M^−1 cm^−1 reported for 5,5′-dibromo-4,4′-dichloroindigo (footnote e)): 74% and 74^e %

Compound: 5-[(Benzylcarbamoyl)oxy)]-1H-indole-3-yl β-D-glucopyranoside [compound 16]
- Yield (%) of indigoid dye, rat liver homogenate (rat liver homogenate): 9%
- Yield (%) of indigoid dye, β-glucosidase from almonds [2, 3]: 24%

Compound: COC(=O)COc1c(Br)cc2[nH]cc(O[C@@H]3O[C@H](CO)[C@@H](O)[C@H](O)[C@H]3O)c2c1Br [compound 24, 4,6-Dibromo-5-(methoxycarbonyl)methoxy-1H-indol-3-yl β-D-glucopyranoside]
- Yield (%) of indigoid dye, rat liver homogenate (rat liver homogenate): <5%
- Yield (%) of indigoid dye, β-glucosidase from Agrobacterium [1, 4]: 102 + 3%
- Yield (%) of indigoid dye, β-glucosidase from Agrobacterium [1, 5]: 209 ± 6%
- Yield (%) of indigoid dye, β-glucosidase from almonds [2, 6]: 59%
- Yield (%) of indigoid dye, β-glucosidase from almonds [2, 3]: 122%

Compound: COc1nc(Oc2ccc3[nH]cc(O[C@@H]4O[C@H](CO)[C@@H](O)[C@H](O)[C@H]4O)c3c2Br)nc(N2CCOCC2)n1 [compound 20, 4-Bromo-5-[(4-methoxy-6-morpholino-1,3,5-triazin-2-yl)oxy]-1H-indole-3-yl β-D-glucopyranoside]
- Yield (%) of indigoid dye, rat liver homogenate (rat liver homogenate): <5%
- Yield (%) of indigoid dye, β-glucosidase from Agrobacterium [1, 5]: 150 ± 3%

Compound: C#CCOc1c(Br)cc2[nH]cc(O[C@@H]3O[C@H](CO)[C@@H](O)[C@H](O)[C@H]3O)c2c1Br [compound 27, 4,6-Dibromo-5-propargyloxy-1H-indol-3-yl β-D-glucopyranoside]
- Yield (%) of indigoid dye, rat liver homogenate (rat liver homogenate): 50%
- Yield (%) of indigoid dye, β-glucosidase from Agrobacterium [1, 4]: 89 ± 2%
- Yield (%) of indigoid dye, β-glucosidase from Agrobacterium [1, 5]: 184 ± 3%
- Yield (%) of indigoid dye, β-glucosidase from almonds [2, 6]: 51%
- Yield (%) of indigoid dye, β-glucosidase from almonds [2, 3]: 105%

Compound: COC(=O)COc1ccc2[nH]cc(O[C@@H]3O[C@H](CO)[C@@H](O)[C@H](O)[C@H]3O)c2c1Br [compound 23, 4-Bromo-5-(methoxycarbonyl)methoxy-1H-indol-3-yl β-D-glucopyranoside]
- Yield (%) of indigoid dye, rat liver homogenate (rat liver homogenate): <5%
- Yield (%) of indigoid dye, β-glucosidase from Agrobacterium [1, 5]: 84 ± 4%
- Yield (%) of indigoid dye, β-glucosidase from almonds [2, 3]: 68%

Compound: C#CCOc1ccc2[nH]cc(O[C@@H]3O[C@H](CO)[C@@H](O)[C@H](O)[C@H]3O)c2c1 [compound 25, 5-Propargyloxy-1H-indol-3-yl β-D-glucopyranoside]
- Yield (%) of indigoid dye, rat liver homogenate (rat liver homogenate): 11%
- Yield (%) of indigoid dye, β-glucosidase from Agrobacterium [1, 5]: 37 ± 2%
- Yield (%) of indigoid dye, β-glucosidase from almonds [2, 3]: <5%

Compound: COC(=O)COc1ccc2[nH]cc(OC3O[C@H](CO)[C@@H](O)[C@H](O)[C@H]3O)c2c1 (stereo partly drawn) [compound 22, 5-(Methoxycarbonyl)methoxy-1H-indol-3-yl-D-glucopyranoside]
- Yield (%) of indigoid dye, rat liver homogenate (rat liver homogenate): <5%
- Yield (%) of indigoid dye, β-glucosidase from Agrobacterium [1, 5]: 30 ± 6%
- Yield (%) of indigoid dye, β-glucosidase from almonds [2, 3]: <1%

Compound: C#CCOc1ccc2[nH]cc(O[C@@H]3O[C@H](CO)[C@@H](O)[C@H](O)[C@H]3O)c2c1Br [compound 26, 4-Bromo-5-propargyloxy-1H-indol-3-yl β-D-glucopyranoside]
- Yield (%) of indigoid dye, rat liver homogenate (rat liver homogenate): 17%
- Yield (%) of indigoid dye, β-glucosidase from Agrobacterium [1, 5]: 79 ± 1%
- Yield (%) of indigoid dye, β-glucosidase from almonds [2, 3]: 56%

Compound: COc1nc(Oc2c(Br)cc3[nH]cc(O[C@@H]4O[C@H](CO)[C@@H](O)[C@H](O)[C@H]4O)c3c2Br)nc(N2CCOCC2)n1 [compound 21, 4,6-Dibromo-5-[(4-methoxy-6-morpholino-1,3,5-triazin-2-yl)oxy]-1H-indole-3-yl β-D-glucopyranoside]
- Yield (%) of indigoid dye, rat liver homogenate (rat liver homogenate): <5%
- Yield (%) of indigoid dye, β-glucosidase from Agrobacterium [1, 4]: 31 ± 2%
- Yield (%) of indigoid dye, β-glucosidase from Agrobacterium [1, 5]: 63 ± 4%

Compound: COc1nc(Oc2ccc3[nH]cc(O[C@@H]4O[C@H](CO)[C@@H](O)[C@H](O)[C@H]4O)c3c2)nc(N2CCOCC2)n1 [compound 19, 5-[(4-Methoxy-6-morpholino-1,3,5-triazin-2-yl)oxy]-1H-indole-3-yl β-D-glucopyranoside]
- Yield (%) of indigoid dye, rat liver homogenate (rat liver homogenate): <5%
- Yield (%) of indigoid dye, β-glucosidase from Agrobacterium [1, 5]: 46 + 5%
- Yield (%) of indigoid dye, β-glucosidase from almonds [2, 3]: <1%

Compound: OC[C@H]1O[C@@H](Oc2c[nH]c3cc(Br)c(OC[C@@H]4[C@@H]5CCC#CCC[C@@H]54)c(Br)c23)[C@H](O)[C@@H](O)[C@@H]1O [compound 30, 5-{[(1R,8S,9s)-Bicyclo[6.1.0]non-4-yn-9-yl]methoxy}-4,6-dibromo-1H-indole-3-yl β-D-glucopyranoside]
- Yield (%) of indigoid dye, β-glucosidase from Agrobacterium [1, 4]: 10% and 10 ± 0.4%
- Yield (%) of indigoid dye, β-glucosidase from Agrobacterium [1, 5]: 21 ± 1%
